As a reminder, the IC50 is the midpoint of a concentration-inhibition curve.

The subject of the first experiment is Human primary T cells. Briefly: IL-2 ELISA, human primary T cell, anti-CD3+CD28+ (whole cell assay). Type of experiment: cell-based. The settings on record: Homo sapiens, T-cell, 24 h, human primary T cells stimulated with anti-CD3 + anti-CD28, 24 hours. The procedure, abridged:
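IL-2 secreted over 24 h at 37° C was quantified by ELISA after plate-bound αCD3 (1 μg/ml) and αCD28 (5 μg/ml) stimulation, or PMA (0.5 ng/ml) with ionomycin (0.1 μM) as counter-screen. Cells were IL-2-starved primary human T cells, expanded from volunteer PBMC and exposed to compound for 1 hr beforehand.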
(In general: ELISA stands for enzyme-linked immunosorbent assay.)
For the compound `CN1C(C)(C)CC(Nc2nc(Nc3ccc(OC4CCN(CCO)CC4)c(F)c3)ncc2F)CC1(C)C` [III-58, 2-(4-(2-fluoro-4-(5-fluoro-4-(1,2,2,6,6-pentamethylpiperidin-4-ylamino)pyrimidin-2-ylamino)phenoxy)piperidin-1-yl)ethanol], the IC50 lay within 500 to 1000 nM.

As to `CC(=O)N1CCC(Oc2ccc(Nc3ncc(F)c(NC4CC(C)(C)NC(C)(C)C4)n3)cc2F)CC1` [III-13, 1-(4-(2-fluoro-4-(5-fluoro-4-(2,2,6,6-tetramethylpiperidin-4-ylamino)pyrimidin-2-ylamino)phenoxy)piperidin-1-yl)ethanone], the IC50 is greater than 1000 nM.

Turning to `CC(=O)N1CCC(Oc2c(F)cc(Nc3ncc(F)c(NC4CC(C)(C)NC(C)(C)C4)n3)cc2F)CC1` [III-92, 1-(4-(2,6-difluoro-4-(5-fluoro-4-(2,2,6,6-tetramethylpiperidin-4-ylamino)pyrimidin-2-ylamino)phenoxy)piperidin-1-yl)ethanone], the IC50 was greater than 1000 nM.

On to `CC1(C)CC(Nc2nc(Nc3cccc(-n4ccc(C(F)(F)F)n4)c3)ncc2F)CC(C)(C)N1` [Compound I-3, 5-fluoro-N2-(3-(3-(trifluoromethyl)-1H-pyrazol-1-yl)phenyl)-N4-(2,2,6,6-tetramethylpiperidin-4-yl)pyrimidine-2,4-diamine], for which the IC50 was greater than 1000 nM.

Take `CN1C(C)(C)CC(Nc2nc(Nc3cc(OCCn4ccnn4)cc(C(F)(F)F)c3)ncc2F)CC1(C)C` [Compound I-33, N2-(3-(2-(1H-1,2,3-triazol-1-yl)ethoxy)-5-(trifluoromethyl)phenyl)-5-fluoro-N4-(1,2,2,6,6-pentamethylpiperidin-4-yl)pyrimidine-2,4-diamine]: the IC50 was in the range of 250 to 500 nM.

As to `Cc1nnnn1-c1cc(Nc2ncc(F)c(NC3CC(C)(C)N(CC4CC4)C(C)(C)C3)n2)ccc1F` [Compound I-11, N4-(1-(cyclopropylmethyl)-2,2,6,6-tetramethylpiperidin-4-yl)-5-fluoro-N2-(4-fluoro-3-(5-methyl-1H-tetrazol-1-yl)phenyl)pyrimidine-2,4-diamine], the IC50 was greater than 1000 nM.

With `CN1C(C)(C)CC(Nc2nc(Nc3ccc(OCCN4CCCC4=O)c(OC(F)F)c3)ncc2F)CC1(C)C` [Compound I-31, 1-(2-(4-(4-(1,2,2,6,6-pentamethylpiperidin-4-ylamino)-5-fluoropyrimidin-2-ylamino)-2-(difluoromethoxy)phenoxy)ethyl)pyrrolidin-2-one], the IC50 is less than 250 nM.

In the case of `CC(C)N1CCC(Oc2ccc(Nc3ncc(F)c(NC4CC(C)(C)NC(C)(C)C4)n3)cc2C#N)CC1` [Compound I-150, 2-(1-isopropylpiperidin-4-yloxy)-5-(4-(2,2,6,6-tetramethylpiperidin-4-ylamino)-5-fluoropyrimidin-2-ylamino)benzonitrile], the IC50 was less than 250 nM.

Take `CC1(C)CC(Nc2nc(Nc3ccc4c(c3)OCC(C(=O)N3CCOCC3)O4)ncc2F)CC(C)(C)N1` (centres unmarked) [II-4, (6-(4-(2,2,6,6-tetramethylpiperidin-4-ylamino)-5-fluoropyrimidin-2-ylamino)-2,3-dihydrobenzo[b][1,4]dioxin-2-yl)(morpholino)methanone]: the IC50 was greater than 1000 nM.

As for `CC(C)Oc1c(F)cc(Nc2ncc(F)c(NC3CC(C)(C)NC(C)(C)C3)n2)cc1-c1nnnn1C` [III-142, 5-fluoro-N2-(3-fluoro-4-isopropoxy-5-(1-methyl-1H-tetrazol-5-yl)phenyl)-N4-(2,2,6,6-tetramethylpiperidin-4-yl)pyrimidine-2,4-diamine], the IC50 lay in the range of 250 to 500 nM.

`Cc1nnnn1-c1cc(Nc2ncc(F)c(NC3CC(C)(C)N(C)C(C)(C)C3)n2)cnc1OC(C)C` [Compound I-113, 5-fluoro-N2-(6-isopropoxy-5-(5-methyl-1H-tetrazol-1-yl)pyridin-3-yl)-N4-(1,2,2,6,6-pentamethylpiperidin-4-yl)pyrimidine-2,4-diamine]: the IC50 is less than 250 nM.

Take `COc1cc(NC(C)=O)cc(Nc2ncc(F)c(NC3CC(C)(C)N(C)C(C)(C)C3)n2)c1` [Compound I-110, N2-(3-Acetylamino-5-methoxyphenyl)-5-fluoro-N4-(1,2,2,6,6-pentamethylpiperidin-4-yl)-2,4-pyrimidinediamine]: the IC50 was in the range of 500 to 1000 nM.

Take `CC1CC(Nc2nc(Nc3ccc(F)c(-n4cnnn4)c3)ncc2F)CC(C)N1C1CC1` (centres unmarked) [III-11, N^4-(1-cyclopropyl-2,6-dimethylpiperidin-4-yl)-5-fluoro-N^2-(4-fluoro-3-(1H-tetrazol-1-yl)phenyl)pyrimidine-2,4-diamine]: the IC50 lay within 250 to 500 nM.

On to `Cc1nnnn1-c1cc(Nc2ncc(F)c(NC3CC(C)(C)N(C)C(C)(C)C3)n2)ccc1OC(F)(F)F` [Compound I-20, 5-fluoro-N2-(3-(5-methyl-1H-tetrazol-1-yl)-4-(trifluoromethoxy)phenyl)-N4-(1,2,2,6,6-pentamethylpiperidin-4-yl)pyrimidine-2,4-diamine], for which the IC50 was less than 250 nM.

On to `Cn1nnnc1-c1cc(C#N)cc(Nc2ncc(F)c(NC3CC(C)(C)NC(C)(C)C3)n2)c1` [III-143, 3-(5-fluoro-4-(2,2,6,6-tetramethylpiperidin-4-ylamino)pyrimidin-2-ylamino)-5-(1-methyl-1H-tetrazol-5-yl)benzonitrile], for which the IC50 is 500 to 1000 nM.

As for `CSc1nnnn1-c1cccc(Nc2ncc(F)c(NC3CC(C)N(C4CC4)C(C)C3)n2)c1` (centres unmarked) [III-10, N^4-(1-cyclopropyl-2,6-dimethylpiperidin-4-yl)-5-fluoro-N2-(3-(5-(methylthio)-1H-tetrazol-1-yl)phenyl)pyrimidine-2,4-diamine], the 50% inhibitory concentration (IC50) lay in the range of 250 to 500 nM.

For `CN1C(C)(C)CC(Nc2nc(Nc3cccc(-n4cncn4)c3)ncc2F)CC1(C)C` [Compound I-12, N2-(3-(1H-1,2,4-triazol-1-yl)phenyl)-5-fluoro-N4-(1,2,2,6,6-pentamethylpiperidin-4-yl)pyrimidine-2,4-diamine], the IC50 was 500 to 1000 nM.

Regarding `CC(=O)N1CCCC(Oc2ccc(Nc3ncc(F)c(NC4CC(C)(C)NC(C)(C)C4)n3)cc2OC(F)F)CC1` (centres unmarked) [III-42, 1-(4-(2-(difluoromethoxy)-4-(5-fluoro-4-(2,2,6,6-tetramethylpiperidin-4-ylamino)pyrimidin-2-ylamino)phenoxy)azepan-1-yl)ethanone], the 50% inhibitory concentration (IC50) lay within 500 to 1000 nM.

Take `CC1(C)CC(Nc2nc(Nc3ccc(OC4CCN(CCO)CC4)c(F)c3)ncc2F)CC(C)(C)N1` [III-57, 2-(4-(2-fluoro-4-(5-fluoro-4-(2,2,6,6-tetramethylpiperidin-4-ylamino)pyrimidin-2-ylamino)phenoxy)piperidin-1-yl)ethanol]: the IC50 was greater than 1000 nM.

In the case of `Cc1cc(Nc2ncc(F)c(NC3CC(C)(C)NC(C)(C)C3)n2)cc(-c2nnnn2C)c1` [III-132, 5-fluoro-N2-(3-methyl-5-(1-methyl-1H-tetrazol-5-yl)phenyl)-N4-(2,2,6,6-tetramethylpiperidin-4-yl)pyrimidine-2,4-diamine], the IC50 fell in the range of 250 to 500 nM.

On to `CN1C(C)(C)CC(Nc2nc(Nc3ccc(OC4CCCN(S(C)(=O)=O)CC4)c(OC(F)F)c3)ncc2F)CC1(C)C` (centres unmarked) [III-89, N2-(3-(difluoromethoxy)-4-(1-(methylsulfonyl)azepan-4-yloxy)phenyl)-5-fluoro-N4-(1,2,2,6,6-pentamethylpiperidin-4-yl)pyrimidine-2,4-diamine], for which the 50% inhibitory concentration (IC50) was in the range of 250 to 500 nM.

As for `Cc1ccc(C)n1-c1cc(Nc2ncc(F)c(NC3CC(C)(C)N(C)C(C)(C)C3)n2)ccc1OC(F)F` [Compound I-4, N2-(4-(difluoromethoxy)-3-(2,5-dimethyl-1H-pyrrol-1-yl)phenyl)-5-fluoro-N4-(1,2,2,6,6-pentamethylpiperidin-4-yl)pyrimidine-2,4-diamine], the IC50 fell in the range of 250 to 500 nM.

Turning to `Cn1nnnc1-c1cc(Nc2ncc(F)c(NC3CC(C)(C)NC(C)(C)C3)n2)ccc1OC1COC1` [III-126, 5-fluoro-N2-(3-(1-methyl-1H-tetrazol-5-yl)-4-(oxetan-3-yloxy)phenyl)-N4-(2,2,6,6-tetramethylpiperidin-4-yl)pyrimidine-2,4-diamine], the IC50 is greater than 1000 nM.

In the case of `CC1(C)CC(Nc2nc(Nc3ccc(OCCCN4CCOCC4)c(OC(F)F)c3)ncc2F)CC(C)(C)N1` [Compound I-47, N2-(4-(3-morpholinopropoxy)-3-(difluoromethoxy)phenyl)-5-fluoro-N4-(2,2,6,6-tetramethylpiperidin-4-yl)pyrimidine-2,4-diamine], the IC50 lay within 500 to 1000 nM.

For `Cc1cc(Nc2ncc(F)c(NC3CC(C)(C)N(C)C(C)(C)C3)n2)cc(-c2nnnn2C)c1` [III-133, 5-fluoro-N2-(3-methyl-5-(1-methyl-1H-tetrazol-5-yl)phenyl)-N4-(1,2,2,6,6-pentamethylpiperidin-4-yl)pyrimidine-2,4-diamine], the IC50 is less than 250 nM.

Staying with this experiment, now noted: human primary T cells stimulated with anti-CD3 + anti-CD28, 24 hours.
For the compound `CC(C)N1CCC(Oc2ccc(Nc3ncc(F)c(NC4CC(C)(C)NC(C)(C)C4)n3)cc2OC(F)F)C(F)C1` (centres unmarked) [III-106, N2-(3-(difluoromethoxy)-4-(3-fluoro-1-isopropylpiperidin-4-yloxy)phenyl)-5-fluoro-N4-(2,2,6,6-tetramethylpiperidin-4-yl)pyrimidine-2,4-diamine], the IC50 was less than 250 nM.

Turning to `Cc1ccc(C)n1-c1cc(Nc2ncc(F)c(NC3CC(C)(C)N(C)C(C)(C)C3)n2)ccc1F` [Compound I-100, N2-[3-(2,5-Dimethyl-pyrrol-1-yl)-4-fluoro]phenyl-5-fluoro-N4-(1,2,2,6,6-pentamethylpiperidin-4-yl)-2,4-pyrimidinediamine], the IC50 is less than 250 nM.

For `CN1C(C)(C)CC(Nc2nc(Nc3cccc(-n4nnnc4SCC(F)(F)F)c3)ncc2F)CC1(C)C` [Compound I-69, 5-fluoro-N4-(1,2,2,6,6-pentamethylpiperidin-4-yl)-N2-{3-[5-(2,2,2-trifluoroethyl)thio]-1H-tetrazol-1-yl}phenyl-2,4-pyrimidinediamine], the IC50 is less than 250 nM.

With `CCCc1nnnn1-c1cc(Nc2ncc(F)c(NC3CC(C)(C)NC(C)(C)C3)n2)ccc1OC` [Compound I-74, 5-fluoro-N2-[4-methoxy-3-(5-propyl-1H-tetrazol-1-yl)]phenyl-N4-(2,2,6,6-tetramethylpiperidin-4-yl)-2,4-pyrimidinediamine], the IC50 was less than 250 nM.

For the origin of these results see US9149475B2, “Protein kinase C inhibitors and uses thereof” (Rigel Pharmaceuticals, Inc., priority 2009, dated 2015).
